In publication PMC6755732, “Structural, Biochemical, and In Vivo Characterization of MtrR-Mediated Resistance to Innate Antimicrobials by the Human Pathogen Neisseria gonorrhoeae” (Journal of Bacteriology, 2019):

Columns and labels:
[1] = CAPS buffer; no reference given; cited from earlier work
MtrR-mtrCDE promoter = target: T1, MtrR-mtrCDE promoter (Neisseria gonorrhoeae, UniProt P39897); assay type: biochemical; conditions: 10 mM CAPS, pH 8.0
T1 construct: nearly all 210 residues of each protomer observed, with the exception of residues 1 through 7; hexahistidine tag (thrombin-cleavable) (cleaved yes); made in house
T1 sequence (P39897 whole entry): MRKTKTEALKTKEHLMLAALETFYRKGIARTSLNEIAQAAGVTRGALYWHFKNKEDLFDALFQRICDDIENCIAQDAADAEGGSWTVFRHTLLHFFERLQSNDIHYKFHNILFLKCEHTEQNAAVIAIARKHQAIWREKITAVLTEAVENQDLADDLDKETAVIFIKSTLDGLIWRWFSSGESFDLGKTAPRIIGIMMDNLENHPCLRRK
Description: Thus, to rule out any effect of alkaline pH on MtrR-DNA interactions, we buffered the CAPS used in the FP assay to pH 8.0 before testing its effect on DNA binding.
Fluorescence polarization-based DNA binding experiments were performed with a Panvera Beacon 2000 fluorescence polarization system (Invitrogen) utilizing 5′-fluorescein-labeled DNA. Polarization (P) of such 5′-labeled DNA increases as a function of protein binding, and equilibrium dissociation constants are determined by curve fitting the values of millipolarization (P × 10^−3) units against the protein concentration. To determine the effects of various ligands on MtrR-DNA binding, 1 nM 5′-fluoresceinated oligodeoxynucleotide duplexes containing the mtrC operator site in 1 ml binding buffer (20 mM Tris HCl [pH 8.0], 100 mM NaCl, and 2.5% glycerol) were titrated against increasing concentrations of purified MtrR in the presence or absence of the indicated concentrations of bile salt, and the resulting changes in polarization were measured. All the samples were excited at 490 nm, and their polarized emissions were measured at 530 nm. All the data were plotted using Kaleidagraph (Synergy Software) and Prism (GraphPad Software), and the resulting plots were fitted to the following equation: P = {(Pbound − Pfree)[protein]/(KD + [protein])} + Pfree, where P is the polarization measured at a given protein concentration, Pfree is the initial polarization of the free ligand, Pbound is the maximum polarization of specifically bound ligand, KD is the equilibrium dissociation constant, and [protein] is the protein concentration. Nonlinear least-squares analysis was used to determine Pbound, and Kd. The reported binding constants are the average values from at least three independent experimental measurements.

O=S(=O)(O)CCCNC1CCCCC1 [CAPS, N-cyclohexyl-3-aminopropanesulfonic acid]
pKa [1]: ~10.5
Fold reduction of MtrR affinity for the mtrC operator sequence (MtrR-mtrCDE promoter): > 300 fold
